{"source": "ChEMBL document CHEMBL1131827", "about": "“Ring E analogs of methyllycaconitine (MLA) as novel nicotinic antagonists” (Bioorg Med Chem Lett, 1999)"}
{"molecular_target": "Chromaffin cell neuronal nicotinic acetylcholine receptor (Bos taurus) (UniProt Q8SPU6+Q07263+P54131)", "sequence (P54131 whole entry, looked up)": "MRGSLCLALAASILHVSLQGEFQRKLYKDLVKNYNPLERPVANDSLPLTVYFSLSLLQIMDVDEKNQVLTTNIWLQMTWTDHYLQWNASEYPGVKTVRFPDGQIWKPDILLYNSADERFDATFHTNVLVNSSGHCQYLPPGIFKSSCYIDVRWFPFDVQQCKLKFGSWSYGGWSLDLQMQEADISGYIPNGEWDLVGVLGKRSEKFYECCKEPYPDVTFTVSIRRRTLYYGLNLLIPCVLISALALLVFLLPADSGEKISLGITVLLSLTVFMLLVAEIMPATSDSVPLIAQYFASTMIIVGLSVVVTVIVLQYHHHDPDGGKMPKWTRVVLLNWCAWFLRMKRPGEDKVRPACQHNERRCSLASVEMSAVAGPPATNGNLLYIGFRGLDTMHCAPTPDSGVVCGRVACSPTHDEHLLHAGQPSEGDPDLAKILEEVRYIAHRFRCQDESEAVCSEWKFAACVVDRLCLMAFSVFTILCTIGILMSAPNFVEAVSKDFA", "sequence (Q07263 whole entry, looked up)": "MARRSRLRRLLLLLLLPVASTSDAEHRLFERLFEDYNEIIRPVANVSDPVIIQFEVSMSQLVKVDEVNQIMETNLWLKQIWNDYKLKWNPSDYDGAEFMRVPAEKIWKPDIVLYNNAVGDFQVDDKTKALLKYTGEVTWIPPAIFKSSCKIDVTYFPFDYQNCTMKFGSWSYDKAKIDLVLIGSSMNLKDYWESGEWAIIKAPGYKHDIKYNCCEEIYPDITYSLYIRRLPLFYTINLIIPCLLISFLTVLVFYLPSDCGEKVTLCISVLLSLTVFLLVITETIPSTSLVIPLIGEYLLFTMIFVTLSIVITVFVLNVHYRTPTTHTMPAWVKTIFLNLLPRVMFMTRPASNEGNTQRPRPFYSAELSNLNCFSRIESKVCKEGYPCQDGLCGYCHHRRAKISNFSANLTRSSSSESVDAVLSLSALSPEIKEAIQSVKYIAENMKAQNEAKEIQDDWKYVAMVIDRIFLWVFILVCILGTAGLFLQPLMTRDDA", "sequence (Q8SPU6 whole entry, looked up)": "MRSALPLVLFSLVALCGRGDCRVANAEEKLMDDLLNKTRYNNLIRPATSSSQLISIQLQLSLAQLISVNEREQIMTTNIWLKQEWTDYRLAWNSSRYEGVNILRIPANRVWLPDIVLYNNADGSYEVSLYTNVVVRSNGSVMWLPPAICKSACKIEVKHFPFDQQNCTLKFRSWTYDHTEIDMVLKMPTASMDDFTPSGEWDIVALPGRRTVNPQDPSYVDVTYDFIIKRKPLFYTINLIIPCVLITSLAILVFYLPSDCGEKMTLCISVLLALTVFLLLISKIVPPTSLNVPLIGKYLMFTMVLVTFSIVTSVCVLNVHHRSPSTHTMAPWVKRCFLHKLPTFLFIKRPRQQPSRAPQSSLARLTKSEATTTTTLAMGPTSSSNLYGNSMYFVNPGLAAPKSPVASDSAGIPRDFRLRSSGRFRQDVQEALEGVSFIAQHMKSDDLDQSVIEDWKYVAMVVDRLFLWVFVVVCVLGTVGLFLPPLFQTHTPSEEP", "assay": "Antagonist activity was determined by inhibition of neuronal nicotine acetylcholine receptor (nAChR)-stimulated catecholamine release in cultured bovine adrenal chromaffin cells", "type": "functional", "set-up": "concentration or dose not given beside the values", "conditions": "concentration not given here", "units": {"inhibition": "%"}}
{"smiles": "CC1CC(=O)N(c2ccccc2C(=O)OCC2CCCN(C(C)C)C2)C1=O", "note": "(centres undefined)", "inhibition": 56.5}
{"smiles": "CCN1CCCC(COC(=O)c2ccccc2N2C(=O)CC(C)C2=O)C1", "note": "(centres undefined)", "inhibition": 33.5}
{"smiles": "CC1CC(=O)N(c2ccccc2C(=O)OCC2CCCN(CCCc3ccccc3)C2)C1=O", "note": "(centres undefined)", "inhibition": 86.3}
{"smiles": "CCOCCN1CCCC(COC(=O)c2ccccc2N2C(=O)CC(C)C2=O)C1", "note": "(centres undefined)", "inhibition": 45.9}
{"smiles": "CC(C)N1CCCC(COC(=O)c2ccccc2N2C(=O)CCC2=O)C1", "note": "(centres undefined)", "inhibition": 36.4}
{"smiles": "CCCCN1CCCC(COC(=O)c2ccccc2N2C(=O)CCC2=O)C1", "note": "(centres undefined)", "inhibition": 38.4}
{"smiles": "CC1CC(=O)N(c2ccccc2C(=O)OCC2CCCN(CCc3ccccc3)C2)C1=O", "note": "(centres undefined)", "inhibition": 37}
{"smiles": "CC1CC(=O)N(c2ccccc2C(=O)OCC2CCCN(C)C2)C1=O", "note": "(centres undefined)", "inhibition": 30.1}
{"smiles": "CCN1C[C@]2(COC(=O)c3ccccc3N3C(=O)C[C@H](C)C3=O)CC[C@H](OC)[C@@]34[C@@H]5C[C@H]6[C@H](OC)[C@@H]5[C@](O)(C[C@@H]6OC)[C@](O)([C@@H](OC)[C@H]23)[C@@H]14", "inhibition": 95.2}
